Experimental data as given in EP4741386A1 (Jiangsu Yahong Meditech Co., Ltd., priority 2023, dated 2025).

Biological target: T1, Recombinant human His6-USP1/His6-UAF1 complex protein (Homo sapiens, UniProt O94782)
T1 construct: His6; purchased R&D E-568-050
Assay: In vitro inhibitory activity against USP1 (Ubiquitin Rhodamine 110 fluorescence detection, 384-well plate)
Type: biochemical
Settings: Ub-Rho substrate, 1 hour pre-incubation, read after 30 minutes
Experimental: Test Example 1: In vitro inhibitory activity against USP1 […]
Experimental object: to screen compounds with inhibitory activity against USP1 […] by a fluorescence detection method, using a 384-well plate.
Experimental materials: Recombinant human His6-USP1/His6-UAF1 complex protein (R&D, Cat. No.: E-568-050), Ubiquitin Rhodamine 110 protein (Ub-Rho) (R&D, Cat. No.: U-555-050), 384-well plate (Perkin Elmer, Cat. No.: 6007279); all compounds were dissolved in 100% DMSO to obtain 50 mM stock solutions.
• 1) Preparation of 1 × assay buffer: 1 × assay buffer (modified Tris buffer) was prepared; • 2) Dilution of compounds: the compounds were transferred to an assay plate via Echo.

T1 sequence (O94782 whole entry): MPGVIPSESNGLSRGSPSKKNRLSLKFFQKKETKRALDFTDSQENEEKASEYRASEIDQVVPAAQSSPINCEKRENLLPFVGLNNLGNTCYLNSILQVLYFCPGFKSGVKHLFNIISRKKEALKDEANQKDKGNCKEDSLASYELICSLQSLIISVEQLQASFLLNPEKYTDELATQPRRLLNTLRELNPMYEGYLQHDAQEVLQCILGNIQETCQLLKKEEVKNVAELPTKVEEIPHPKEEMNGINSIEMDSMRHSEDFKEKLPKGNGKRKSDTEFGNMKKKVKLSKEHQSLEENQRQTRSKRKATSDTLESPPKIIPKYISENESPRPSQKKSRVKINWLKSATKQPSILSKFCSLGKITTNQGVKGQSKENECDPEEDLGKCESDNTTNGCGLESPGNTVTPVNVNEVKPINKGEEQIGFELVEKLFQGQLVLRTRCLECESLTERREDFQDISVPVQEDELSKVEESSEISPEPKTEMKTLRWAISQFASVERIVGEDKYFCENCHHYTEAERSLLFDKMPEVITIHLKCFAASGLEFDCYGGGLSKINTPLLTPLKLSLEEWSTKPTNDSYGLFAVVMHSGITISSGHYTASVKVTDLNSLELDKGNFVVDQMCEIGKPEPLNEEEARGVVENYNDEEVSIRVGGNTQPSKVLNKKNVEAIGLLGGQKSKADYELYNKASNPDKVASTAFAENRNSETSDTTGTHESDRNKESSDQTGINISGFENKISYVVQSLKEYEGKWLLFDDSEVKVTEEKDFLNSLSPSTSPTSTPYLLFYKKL
T1 sequence (Q8TAF3 whole entry partner): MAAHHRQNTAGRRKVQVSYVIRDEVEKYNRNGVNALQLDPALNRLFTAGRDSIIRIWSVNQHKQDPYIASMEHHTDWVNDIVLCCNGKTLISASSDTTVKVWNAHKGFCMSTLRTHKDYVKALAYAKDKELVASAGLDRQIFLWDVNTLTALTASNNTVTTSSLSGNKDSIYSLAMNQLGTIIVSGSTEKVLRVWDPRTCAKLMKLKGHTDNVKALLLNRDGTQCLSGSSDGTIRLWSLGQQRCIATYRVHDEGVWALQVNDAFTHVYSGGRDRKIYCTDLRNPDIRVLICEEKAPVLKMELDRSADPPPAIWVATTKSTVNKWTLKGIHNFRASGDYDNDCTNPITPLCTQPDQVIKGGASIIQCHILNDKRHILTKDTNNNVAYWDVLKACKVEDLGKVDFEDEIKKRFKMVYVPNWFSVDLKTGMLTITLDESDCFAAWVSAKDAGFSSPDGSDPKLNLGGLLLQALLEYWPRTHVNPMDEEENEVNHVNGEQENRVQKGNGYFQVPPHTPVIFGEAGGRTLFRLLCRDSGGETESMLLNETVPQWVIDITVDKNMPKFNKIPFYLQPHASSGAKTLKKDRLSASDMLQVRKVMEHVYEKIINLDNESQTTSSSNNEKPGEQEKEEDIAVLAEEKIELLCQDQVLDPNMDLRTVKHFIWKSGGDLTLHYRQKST

SMILES | IC50 [nM]
COc1ncnc(C2CC2)c1-c1nc(NCc2ccc3c(c2)CCN(C(C)C)C3=O)c2occc2n1 [Example 115, 6-(((2-(4-Cyclopropyl-6-methoxypyrimidin-5-yl)furo[3,2-d]pyrimidin-4-yl)amino)methyl)-2-isopropyl-3,4-dihydroisoquinolin-1(2H)-one] | 77
COc1ncnc(C2CC2)c1-c1nc(NCc2ccc(OC3CC(OC)C3)cc2)c2occc2n1 (stereo not shown) [Example 118, 2-(4-Cyclopropyl-6-methoxypyrimidin-5-yl)-N-(4-(3-methoxycyclobutoxy)benzyl)furo[3,2-d]pyrimidin-4-amine] | 58
COc1cnc(-c2c(OC)ncnc2C2CC2)nc1N(Cc1ccc(-c2nc(C(F)(F)F)cn2C)cc1)C1CCOC1 (stereo not shown) [Example 140, 4'-Cyclopropyl-5,6'-dimethoxy-N-(4-(1-methyl-4-(trifluoromethyl)-1H-imidazol-2-yl)benzyl)-N-(tetrahydrofuran-3-yl)-[2,5'-bipyrimidin]-4-amine] | 73
COc1cnc(-c2cccc3ccn(C)c23)nc1NCc1ccc(-c2nc(C(F)(F)F)cn2C)cc1 [Example 143, 5-Methoxy-2-(1-methyl-1H-indol-7-yl)-N-(4-(1-methyl-4-(trifluoromethyl)-1H-imidazol-2-yl)benzyl)pyrimidin-4-amine] | 31
COc1cnc(-c2cccc3ccn(C)c23)nc1NCc1ccc(-n2nc(C(F)(F)F)cc2C)cc1 [Example 144, 5-Methoxy-2-(1-methyl-1H-indol-7-yl)-N-(4-(5-methyl-3-(trifluoromethyl)-1H-pyrazol-1-yl)benzyl)pyrimidin-4-amine] | 68.6
COc1cnc(-c2cccc3c2N(C)CC3)nc1NCc1ccc(-n2nc(C(F)(F)F)cc2C)cc1 [Example 146] | 18
COc1cnc(-c2c(C)ncn2C(C)C)nc1NCc1ccc(-c2nc(C(F)(F)F)cn2C)cc1 [Example 147, 2-(1-Isopropyl-4-methyl-1H-imidazol-5-yl)-5-methoxy-N-(4-(1-methyl-4-(trifluoromethyl)-1H-imidazol-2-yl)benzyl)pyrimidin-4-amine] | 364
Cc1ncn(C(C)C)c1-c1nc(NCc2ccc(-c3nc(C(F)(F)F)cn3C)cc2)c2occc2n1 [Example 149, 2-(1-Isopropyl-4-methyl-1H-imidazol-5-yl)-N-(4-(1-methyl-4-(trifluoromethyl)-1H-imidazol-2-yl)benzyl)furo[3,2-d]pyrimidin-4-amine] | 69.2
Cc1ncn(C(C)C)c1-c1nc(NCC23CCC(c4ccc(C(F)(F)F)cn4)(CC2)CC3)c2occc2n1 [Example 150, 2-(1-Isopropyl-4-methyl-1H-imidazol-5-yl)-N-((4-(5-(trifluoromethyl)pyridin-2-yl)bicyclo[2.2.2]octan-1-yl)methyl)furo[3,2-d]pyrimidin-4-amine] | 431
COc1cnc(-c2c(OC)cnn2C(C)C)nc1N(C)CC1CCN(c2ccccn2)CC1 [Example 177, 2-(1-Isopropyl-4-methoxy-1H-pyrazol-5-yl)-5-methoxy-N-methyl-N-((1-(pyridin-2-yl)piperidin-4-yl)methyl)pyrimidin-4-amine] | 75
COc1cnc(-c2c(OC)cnn2C(C)C)nc1NCc1ccc(-c2ccccn2)cc1 [Example 178, 2-(1-Isopropyl-4-methoxy-1H-pyrazol-5-yl)-5-methoxy-N-(4-(pyridin-2-yl)benzyl)pyrimidin-4-amine] | 110
COc1cnn(C(C)C)c1-c1nc(NCc2ccc(-c3ccccn3)cc2)c2occc2n1 [Example 181, 2-(1-Isopropyl-4-methoxy-1H-pyrazol-5-yl)-N-(4-(pyridin-2-yl)benzyl)furo[3,2-d]pyrimidin-4-amine] | 27
COc1cnc(-c2c(OC)cnn2C2CC2)nc1NCc1ccc(-c2ccccn2)cc1 [Example 183, 2-(1-Cyclopropyl-4-methoxy-1H-pyrazol-5-yl)-5-methoxy-N-(4-(pyridin-2-yl)benzyl)pyrimidin-4-amine] | 164
